Molecules are shown by their SMILES. Like-named read-outs stand apart in the source and are kept apart here.

One data set relates to PDE4. The data set can be described thus: Evaluation of PDE4 inhibitory activity, scintillation proximity assay. The class given is biochemical. To be noted: scintillation proximity assay. In a few lines: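 SPA with [2,8-3H]-cAMP and diluted PDE4 enzyme preparation in 50 mM Tris-HCl pH 7.4, 8.3 mM MgCl2, 1.7 mM EGTA, 3 mg/mL BSA, 120 min at room temperature. Product captured on ZnSO4-containing YSi-SPA beads, scintillation counted; IC50 from inhibition curves vs DMSO control and no-enzyme blank.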

Data set [1] is described as follows: Hepatic metabolic stability (rat liver microsome method). In kind it is in vitro ADME. Conditions: rat liver microsomes 0.5 mg/mL, test substance 1 μM, NADPH 1 mM, 37° C., 30 minutes. The procedure: Metabolic stability in rat liver microsomes was evaluated by the following method. First, in 100 mM of potassium phosphate buffer solution (pH 7.4), liver microsomes (concentration at reaction: 0.5 mg/mL) and the test substance (concentration at reaction: 1 μM) were preincubated at 37° C. Five minutes later, 100 mM of potassium phosphate buffer (pH 7.4) solution of NADPH (concentration at reaction: 1 mM) was mixed thereto to start the reaction. After a predetermined time passed, acetonitrile was mixed to the reaction mixture to stop the reaction. Here, the reaction time was 0 and 30 minutes, and drug concentration measurement was performed for each time period using LC-MS. The % remaining value of the test compound was calculated from the value for 0 minutes and the value for 30 minutes, using the calculation formula below: % Remaining=(Value for 30 Minutes/Value for 0 Minutes)×100
The results of measuring the rat liver microsome metabolic Stability (% remaining for 30-minute reaction) for the test compound by the above method were evaluated in accordance with the following evaluated basis; A: a % remaining rate of 75% or more, B: 60% or more and less than 75%, C: 45% or more and less than 60%, and D: less than 45%.

Where [2] appears, read: read-out: PDE4 Inhibitory Activity (Evaluation 1; concentration for the inhibition rate of 50%).
Where [3] appears, read: class symbols of Evaluation 1, read-out: PDE4 Inhibitory Activity (concentration for the inhibition rate of 50%, IC50), Evaluation 1.

For the compound `CC(C)(O)C(F)(F)Oc1c(Br)cc(-c2nccs2)c2oc(N3CC4CC(C3)N4)nc12` [Example 399, 1-((2-(3,6-Diazabicyclo[3.1.1]heptan-3-yl)-5-bromo-7-(thiazol-2-yl)benzo[d]oxazol-4-yl)oxy)-1,1-difluoro-2-methylpropan-2-ol], the IC50 in the data set on PDE4 (setting [2]) is under 0.1 µM. The “Residual ratio (% remaining for 30-minute reaction)” value in data set [1] was “B (B: 60% or more and less than 75%)”.
As to `CC(C)(O)C(F)(F)Oc1ccc(-c2ccccn2)c2oc(N3CC4CCC(C3)N4)nc12` [Example 317, 1-((2-(3,8-Diazabicyclo[3.2.1]octan-3-yl)-7-(pyridin-2-yl)benzo[d]oxazol-4-yl)oxy)-1,1-difluoro-2-methylpropan-2-ol], in the data set with PDE4 (setting [2]), the IC50 is under 0.1 µM. Besides, the “Residual ratio (% remaining for 30-minute reaction)” value in data set [1] was “A (A: a % remaining rate of 75% or more)”.
On to `FC(F)(F)Oc1c(Cl)cc(-c2cscn2)c2oc(N3CC4CCC(C3)N4)nc12` [Example 8, 2-(3,8-Diazabicyclo[3.2.1]octan-3-yl)-5-chloro-7-(thiazol-4-yl)-4-(trifluoromethoxy)benzo[d]oxazole], for which the IC50 with PDE4 (setting [3]) is under 0.1 µM. Further, in data set [1], the “Residual ratio (% remaining for 30-minute reaction)” value is “A (A: a % remaining rate of 75% or more)”.
For `FC(F)(F)Oc1c(Cl)cc(-n2cccn2)c2oc(N3CC4CCC(C3)N4)nc12` [Example 5, 2-(3,8-Diazabicyclo[3.2.1]octan-3-yl)-5-chloro-7-(1H-pyrazol-1-yl)-4-(trifluoromethoxy)benzo[d]oxazole], in the data set with PDE4 (setting [3]), the IC50 was under 0.1 µM. For the same compound, in data set [1], the “Residual ratio (% remaining for 30-minute reaction)” value is “B (B: 60% or more and less than 75%)”.
For the compound `[O-][S+](CCO)c1ccc(-c2nccs2)c2oc(N3CC4CC(C3)N4)nc12` (stereo not shown) [Example 349, 2-((2-(3,6-Diazabicyclo[3.1.1]heptan-3-yl)-7-(thiazol-2-yl)benzo[d]oxazol-4-yl)sulfinyl)ethan-1-ol], the IC50 in the data set on PDE4 (setting [2]) is under 0.1 µM. Further, the “Residual ratio (% remaining for 30-minute reaction)” value in data set [1] is reported as “A (A: a % remaining rate of 75% or more)”.
Taken in the same sequence, the figures for `OCc1ccc(Oc2ccc(-c3nccs3)c3oc(N4CC5CC(C4)N5)nc23)nc1` [Example 341, (6-((2-(3,6-Diazabicyclo[3.1.1]heptan-3-yl)-7-(thiazol-2-yl)benzo[d]oxazol-4-yl)oxy)pyridin-3-yl)methanol] were under 0.1 µM and “A (A: a % remaining rate of 75% or more)”.
With `C[S+]([O-])c1ccc(-c2nccs2)c2oc(N3CC4CC(C3)N4)nc12` (stereo not shown) [Example 346, 2-(3,6-Diazabicyclo[3.1.1]heptan-3-yl)-4-(methylsulfinyl)-7-(thiazol-2-yl)benzo[d]oxazole], the IC50 in the data set on PDE4 (setting [2]) was under 0.1 µM. In data set [1], the “Residual ratio (% remaining for 30-minute reaction)” value was “A (A: a % remaining rate of 75% or more)”.
Take `c1csc(-c2ccc(O[C@@H]3CCOC3)c3nc(N4CC5CC(C4)N5)oc23)n1` [Example 324, 2-(3,6-Diazabicyclo[3.1.1]heptan-3-yl)-4-(((R)-tetrahydrofuran-3-yl)oxy)-7-(thiazol-2-yl)benzo[d]oxazole]: the IC50 with PDE4 (setting [2]) is under 0.1 µM. Further, the “Residual ratio (% remaining for 30-minute reaction)” value in data set [1] is “A (A: a % remaining rate of 75% or more)”.
On to `FC(F)(F)c1c(Cl)cc(-c2ccccn2)c2oc(N3CC4CCCC(C3)N4)nc12` [Example 12, 2-(3,9-Diazabicyclo[3.3.1]nonan-3-yl)-5-chloro-7-(pyridin-2-yl)-4-(trifluoromethyl)benzo[d]oxazole], for which, in the data set on PDE4 (setting [3]), the IC50 was under 0.1 µM. Moreover, the “Residual ratio (% remaining for 30-minute reaction)” value in data set [1] was “B (B: 60% or more and less than 75%)”.
As for `CC(C)(O)C(F)(F)Oc1ccc(-c2ncccn2)c2oc(N3CC4CCC(C3)N4)nc12` [Example 330, 1-((2-(3,8-Diazabicyclo[3.2.1]octan-3-yl)-7-(pyrimidin-2-yl)benzo[d]oxazol-4-yl)oxy)-1,1-difluoro-2-methylpropan-2-ol], the IC50 in the data set with PDE4 (setting [2]) is under 0.1 µM. Also, in data set [1], the “Residual ratio (% remaining for 30-minute reaction)” value is on record as “A (A: a % remaining rate of 75% or more)”.
As for `COCC(F)(F)Oc1ccc(-c2nccs2)c2oc(N3CC4CC(C3)N4)nc12` [Example 392, 2-(3,6-Diazabicyclo[3.1.1]heptan-3-yl)-4-(1,1-difluoro-2-methoxyethoxy)-7-(thiazol-2-yl)benzo[d]oxazole], the IC50 with PDE4 (setting [2]) was under 0.1 µM. Moreover, the “Residual ratio (% remaining for 30-minute reaction)” value in data set [1] is “B (B: 60% or more and less than 75%)”.
On to `c1cnc(Oc2ccc(-c3nccs3)c3oc(N4CC5CC(C4)N5)nc23)cn1` [Example 339, 2-(3,6-Diazabicyclo[3.1.1]heptan-3-yl)-4-(pyrazin-2-yloxy)-7-(thiazol-2-yl)benzo[d]oxazole], for which, in the data set on PDE4 (setting [2]), the IC50 was under 0.1 µM. Moreover, the “Residual ratio (% remaining for 30-minute reaction)” value in data set [1] is “B (B: 60% or more and less than 75%)”.
In the case of `O=S(=O)(c1ccc(-c2nccs2)c2oc(N3CC4CC(C3)N4)nc12)N1CCOCC1` [Example 391, 2-(3,6-Diazabicyclo[3.1.1]heptan-3-yl)-4-(morpholinosulfonyl)-7-(thiazol-2-yl)benzo[d]oxazole], the IC50 in the data set with PDE4 (setting [2]) is under 0.1 µM. Moreover, the “Residual ratio (% remaining for 30-minute reaction)” value in data set [1] was “B (B: 60% or more and less than 75%)”.
Consider `OC1CCN(c2ccc(-c3nccs3)c3oc(N4CC5CC(C4)N5)nc23)CC1` [Example 397, 1-(2-(3,6-Diazabicyclo[3.1.1]heptan-3-yl)-7-(thiazol-2-yl)benzo[d]oxazol-4-yl)piperidin-4-ol], for which the IC50 in the data set with PDE4 (setting [2]) was under 0.1 µM. For the same compound, the “Residual ratio (% remaining for 30-minute reaction)” value in data set [1] is recorded as “A (A: a % remaining rate of 75% or more)”.
Take `Cc1cc(C(F)(F)F)c(Oc2ccc(-c3nccs3)c3oc(N4CC5CC(C4)N5)nc23)nn1` [Example 340, 2-(3,6-Diazabicyclo[3.1.1]heptan-3-yl)-4-((6-methyl-4-(trifluoromethyl)pyridazin-3-yl)oxy)-7-(thiazol-2-yl)benzo[d]oxazole]: the IC50 with PDE4 (setting [2]) is under 0.1 µM. Further, the “Residual ratio (% remaining for 30-minute reaction)” value in data set [1] was “A (A: a % remaining rate of 75% or more)”.
Taken in the same sequence, the figures for `CC(C)(O)C(F)(F)Oc1ccc(-n2cccn2)c2oc(N3CC4CC(C3)N4)nc12` [Example 304, 1-((2-(3,6-Diazabicyclo[3.1.1]heptan-3-yl)-7-(1H-pyrazol-1-yl)benzo[d]oxazol-4-yl)oxy)-1,1-difluoro-2-methylpropan-2-ol] were under 0.1 µM and “A (A: a % remaining rate of 75% or more)”.
Taken in the same sequence, the figures for `COCCNC(=O)c1ccc(-c2nccs2)c2oc(N3CC4CC(C3)N4)nc12` [Example 353, 2-(3,6-Diazabicyclo[3.1.1]heptan-3-yl)-N-(2-methoxyethyl)-7-(thiazol-2-yl)benzo[d]oxazole-4-carboxamide] were under 0.1 µM and “A (A: a % remaining rate of 75% or more)”.
The corresponding values for `CC(C)(O)C(F)(F)Oc1ccc(-n2cccn2)c2oc(N3CC4CCC(C3)N4)nc12` [Example 316, 1-((2-(3,8-Diazabicyclo[3.2.1]octan-3-yl)-7-(1H-pyrazol-1-yl)benzo[d]oxazol-4-yl)oxy)-1,1-difluoro-2-methylpropan-2-ol] are under 0.1 µM and “A (A: a % remaining rate of 75% or more)”.
Take `CC(C)(O)C(F)(F)Oc1ccc(-c2ccc(F)cn2)c2oc(N3CC4CCC(C3)N4)nc12` [Example 332, 1-((2-(3,8-Diazabicyclo[3.2.1]octan-3-yl)-7-(5-fluoropyridin-2-yl)benzo[d]oxazol-4-yl)oxy)-1,1-difluoro-2-methylpropan-2-ol]: in the data set with PDE4 (setting [2]), the IC50 is under 0.1 µM. For the same compound, the “Residual ratio (% remaining for 30-minute reaction)” value in data set [1] was “A (A: a % remaining rate of 75% or more)”.
`FC(F)(F)c1ccc(Oc2ccc(-c3nccs3)c3oc(N4CC5CC(C4)N5)nc23)nc1` [Example 336, 2-(3,6-Diazabicyclo[3.1.1]heptan-3-yl)-7-(thiazol-2-yl)-4-((5-(trifluoromethyl)pyridin-2-yl)oxy)benzo[d]oxazole]: the IC50 in the data set with PDE4 (setting [2]) was under 0.1 µM. For the same compound, in data set [1], the “Residual ratio (% remaining for 30-minute reaction)” value was “B (B: 60% or more and less than 75%)”.
In the case of `OCC(F)(F)Oc1ccc(-c2nccs2)c2oc(N3CC4CC(C3)N4O)nc12` [Example 374, 3-(4-(1,1-Difluoro-2-hydroxyethoxy)-7-(thiazol-2-yl)benzo[d]oxazol-2-yl)-3,6-diazabicyclo[3.1.1]heptan-6-ol], the IC50 with PDE4 (setting [2]) is under 0.1 µM. For the same compound, in data set [1], the “Residual ratio (% remaining for 30-minute reaction)” value was “B (B: 60% or more and less than 75%)”.
With `OCc1cccnc1Oc1ccc(-c2nccs2)c2oc(N3CC4CC(C3)N4)nc12` [Example 376, (2-((2-(3,6-Diazabicyclo[3.1.1]heptan-3-yl)-7-(thiazol-2-yl)benzo[d]oxazol-4-yl)oxy)pyridin-3-yl)methanol], the IC50 in the data set with PDE4 (setting [2]) was under 0.1 µM. Further, the “Residual ratio (% remaining for 30-minute reaction)” value in data set [1] is listed as “A (A: a % remaining rate of 75% or more)”.
Consider `OCCSc1ccc(-c2nccs2)c2oc(N3CC4CC(C3)N4)nc12` [Example 348, 2-((2-(3,6-Diazabicyclo[3.1.1]heptan-3-yl)-7-(thiazol-2-yl)benzo[d]oxazol-4-yl)thio)ethan-1-ol], for which the IC50 in the data set on PDE4 (setting [2]) is under 0.1 µM. In addition, the “Residual ratio (% remaining for 30-minute reaction)” value in data set [1] was “B (B: 60% or more and less than 75%)”.

The values are drawn from US12239643B2, “Therapeutic agent for inflammatory diseases, autoimmune diseases, fibrotic diseases, and cancer diseases” (MEIJI SEIKA PHARMA CO., LTD., priority 2018, dated 2025).
